The text below walks through data of US9952300B2, “Dynamic contrast enhanced MRI method and agents for the assessment of the macromolecular transport within pathologic tissues” (BRACCO IMAGING S.P.A., priority 2012, dated 2018).

For one data set, the target named is Human Serum Albumin (Homo sapiens, UniProt P02768). As to conditions: literature; cited from earlier work.
The subject of data set [1] is WM1552/5 melanoma xenografts. The data set can be described thus: DCE-MRI with B22956/1 in WM1552/5 melanoma xenografts 24 h after PTX (Example 4). The data set is classed as in vivo, NCr-nu/nu mice. As to conditions: WM1552/5 tumor rim and core, 24 h after PTX 20 mg/kg i.v. An excerpt: Indeed, the potential of non-covalent protein binding contrast agents according the invention to provide in vivo suitable estimates of the effect promoted by a therapeutic agent such as, for instance, an EPR-enhancing agent, i.e. an agent devoted to enhance the uptake of the co-administered macromolecular drug in the tumor area, has been investigated by means of Dynamic Contrast Enhanced MRI tests performed in vivo with B22956/1, used as representative agent according to the invention, on melanoma cancer model xenografts in nude mice treated with vehicle or Paclitaxel (PTX). […] Jain, R. K. & Stylianopoulos, T. Nat. Rev. Clin. Oncol. 2010, 7: 653-664).
Six- to eight-week-old female NCr-nu/nu mice, obtained from Harlan (Correzzana, Italy) were maintained under specific pathogen-free conditions and handled using aseptic procedures throughout the whole study. […]
PTX- and vehicle-treated nude mice bearing WM1552/5 melanoma xenografts (N=4 mice per group) were analyzed by DCE-MRI 24 h after PTX administration. […] Pre-contrast T1 values in tumors were measured using a multislice variable flip-angle FLASH. […]
Differences in the kinetics of distribution of the contrast agent (DCE-MRI) were analyzed by Mann Whitney U test.

Human Serum Albumin, sequence (P02768 25-609): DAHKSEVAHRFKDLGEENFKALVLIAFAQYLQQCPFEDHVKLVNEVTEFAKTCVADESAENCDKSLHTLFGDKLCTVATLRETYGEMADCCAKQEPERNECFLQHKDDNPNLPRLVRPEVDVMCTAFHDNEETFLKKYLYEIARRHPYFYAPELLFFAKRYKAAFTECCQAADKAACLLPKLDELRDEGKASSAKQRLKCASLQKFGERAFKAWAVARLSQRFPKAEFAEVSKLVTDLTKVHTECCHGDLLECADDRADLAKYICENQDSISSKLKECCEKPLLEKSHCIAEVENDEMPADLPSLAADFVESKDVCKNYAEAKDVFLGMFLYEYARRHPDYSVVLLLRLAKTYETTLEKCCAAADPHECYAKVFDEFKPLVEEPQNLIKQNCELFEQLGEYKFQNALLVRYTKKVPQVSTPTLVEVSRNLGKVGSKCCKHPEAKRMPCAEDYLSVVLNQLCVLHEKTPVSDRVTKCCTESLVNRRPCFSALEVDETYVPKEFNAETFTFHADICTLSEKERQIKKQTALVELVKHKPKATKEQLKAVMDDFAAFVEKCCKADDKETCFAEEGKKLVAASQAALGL

As for `C[C@H](CCC(=O)[O-])[C@H]1CC[C@H]2[C@@H]3CC[C@@H]4C[C@@H](NC(=O)CC[C@@H](C(=O)[O-])N(CCN(CC(=O)[O-])CC(=O)[O-])CCN(CC(=O)[O-])CC(=O)[O-])CC[C@]4(C)[C@H]3C[C@H](O)[C@]12C.[Gd+3].[Na+].[Na+].[Na+]` [B22956/1, Gadocoletic acid trisodium salt], the “non-covalent binding with Human Serum Albumin” value on Human Serum Albumin is “about 95%”.
`CC(=O)O[C@H]1C(=O)[C@@]2(C)[C@H]([C@H](OC(=O)c3ccccc3)[C@]3(O)C[C@H](OC(=O)[C@H](O)[C@@H](NC(=O)c4ccccc4)c4ccccc4)C(C)=C1C3(C)C)[C@]1(OC(C)=O)CO[C@@H]1C[C@@H]2O` [PTX, Paclitaxel]: in data set [1], the “K^trans measured with B22956/1, pre-treated versus vehicle” value is on record as “statistically significant increase” and the “fractional plasma volume fPV (%) measured with B22956/1, pre-treated versus vehicle” value is given as “statistically significant increase”.
